This is an account of results in patent publication US11655216B2 (priority 2016, dated 2023).

The target in experiment [1] is T1, glutathione-S-transferase (GST) tagged LXRbeta LBD (ligand binding domain) (Homo sapiens, UniProt P55055).
T1 construct: purchased Invitrogen pv4658
T1 sequence (P55055 222-460 limits assumed): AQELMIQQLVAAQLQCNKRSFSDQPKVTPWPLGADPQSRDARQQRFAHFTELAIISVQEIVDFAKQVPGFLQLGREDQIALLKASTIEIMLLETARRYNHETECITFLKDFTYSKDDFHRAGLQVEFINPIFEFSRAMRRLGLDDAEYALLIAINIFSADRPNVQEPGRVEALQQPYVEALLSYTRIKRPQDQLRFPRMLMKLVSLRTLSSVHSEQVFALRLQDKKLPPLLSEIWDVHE
The experiment in a line: LanthaScreen TR-FRET Liver X Receptor Coactivator Assay, LXR beta. The class given is biochemical. The note with it: for EC50: LXR beta IP, potency (Inflection Point), compound-induced co-activator recruitment, TR-FRET; for Emax: read-out: LXR beta actiivty at max dose, efficacy (% Emax) in relation to reference dual agonist T0901317. The method, boiled down:
(§1)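 LXR alpha- or beta-LBD added to test compounds, then fluorescein-labelled coactivator peptide plus terbium anti-GST antibody. After incubation at room temperature, TR-FRET read on a filter-based plate reader.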
Background: In TR-FRET formats the signal depends on donor and acceptor labels being close together.

Experiment [2] deals with T2, glutathione-S-transferase (GST) tagged LXRalpha LBD (ligand binding domain) (Homo sapiens, UniProt Q13133).
T2 construct: purchased Invitrogen pv4655
T2 sequence (Q13133 209-447 limits assumed): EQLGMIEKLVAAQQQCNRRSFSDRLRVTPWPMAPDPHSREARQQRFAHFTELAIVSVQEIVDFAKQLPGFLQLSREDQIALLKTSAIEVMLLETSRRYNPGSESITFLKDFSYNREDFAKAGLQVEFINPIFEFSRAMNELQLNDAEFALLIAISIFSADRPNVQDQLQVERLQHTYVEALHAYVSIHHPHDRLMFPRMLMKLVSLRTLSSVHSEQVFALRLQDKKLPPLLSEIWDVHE
The experiment can be described thus: biochemical. The conditions noted are these: for EC50 / LXR alpha IP: potency (Inflection Point), compound-induced co-activator recruitment, TR-FRET. Put shortly: as §1

[3] abbreviates: read-out: LXR alpha actiivty at max dose, efficacy (% Emax) in relation to reference dual agonist T0901317.
[4] abbreviates: efficacy (% Emax) in relation to reference dual agonist T0901317, read-out: LXR alpha actiivty at max dose.

Where two headings read alike, the source gives them in different places.

With `O=C(c1ccc(OCCCCC2CCN(C(=O)[C@](O)(c3ccccc3)C(F)(F)F)CC2)cc1Cl)N1CCC[C@H]1CO` (single isomer, unassigned) [Example 8-7, (R or S)-1-(4-(4-(3-chloro-4-((S or R)-2-(hydroxymethyl)pyrrolidine-1-carbonyl)phenoxy)butyl)piperidin-1-yl)-3,3,3-trifluoro-2-hydroxy-2-phenylpropan-1-one], the results for the EC50 in experiment [1] and in experiment [2] (LXR alpha IP) were 7 nM and 131 nM, respectively. Further, the Emax in experiment [1] turned out to be 48%; in experiment [2] (setting [3]) it was 42%.

With `CN(C)C(=O)c1ccc(OCCCCC2CCN(C(=O)C(O)(c3cccnc3)C(F)(F)F)CC2)nc1Cl` (centres unmarked) [Example 6-2, 2-chloro-N,N-dimethyl-6-(4-(1-(3,3,3-trifluoro-2-hydroxy-2-(pyridin-3-yl)propanoyl)piperidin-4-yl)butoxy)nicotinamide], the EC50 in experiment [1] was determined as 8 nM; in experiment [2] (LXR alpha IP) it was 1230 nM. Further, the Emax worked out at 90% in experiment [1] and 74% in experiment [2] (setting [3]).

In the case of `CNC(=O)c1ccc(OC[C@@H](C)CCC2CCN(C(=O)[C@@](O)(c3cccc(OC)c3)C(F)(F)F)CC2)cc1Cl` (single isomer, unassigned) [Example 23-4, 2-chloro-N-methyl-4-((S or R)-2-methyl-4-(1-((S or trifluoro-2-hydroxy-2-(3-methoxyphenyl)propanoyl)piperidin-4-yl)butoxy)benzamide], the EC50 in experiment [1] was 60 nM; in experiment [2] (LXR alpha IP), 717 nM. Moreover, the Emax in experiment [1] was 53%; in experiment [2] (setting [3]) it was 9%.

As to `CN(C)C(=O)c1ccc(OCCC2CC3(CCN(C(=O)C(O)(c4ccccc4)C(F)(F)F)CC3)C2)cc1Cl` (single isomer, unassigned) [Example 34-1, 2-chloro-N,N-dimethyl-4-(2-(7-((R or S)-3,3,3-trifluoro-2-hydroxy-2-phenylpropanoyl)-7-azaspiro[3.5]nonan-2-yl)ethoxy)benzamide], the EC50 in experiment [1] is 16 nM; in experiment [2] (LXR alpha IP), 551 nM. For the same molecule, the results for the Emax in experiment [1] and in experiment [2] (setting [3]) were 113% and 46%, respectively.

In the case of `CNC(=O)c1ccc(OC[C@H]2C[C@@H]2C2CCN(C(=O)[C@](O)(c3ccccc3)C(F)(F)C(F)(F)F)CC2)cc1Cl` (single isomer, unassigned) [Example 32-5, 2-chloro-N-methyl-4-(((1S,2R or 1R,2S)-2-(1-((R or S)-3,3,4,4,4-pentafluoro-2-hydroxy-2-phenylbutanoyl)piperidin-4-yl)cyclopropyl)methoxy) benzamide], the EC50 in experiment [1] was determined as 136 nM; in experiment [2] (LXR alpha IP), 1540 nM. The Emax worked out at 149% in experiment [1] and 33% in experiment [2] (setting [3]).

With `CN(C)C(=O)c1ccc(OCCCC2CC3(CCN(C(=O)C(O)(c4ccccc4)C(F)(F)F)CC3)C2)cc1Cl` (single isomer, unassigned) [Example 35-1, 2-chloro-N,N-dimethyl-4-(3-(7-((R or S)-3,3,3-trifluoro-2-hydroxy-2-phenylpropanoyl)-7-azaspiro[3.5]nonan-2-yl)propoxy)benzamide], the results for the EC50 in experiment [1] and in experiment [2] (read-out: LXR alpha IP) were 69 nM and 546 nM, respectively. Also, the Emax was determined as 61% in experiment [1] and 27% in experiment [2] (setting [4]).

On to `COc1cccc(C(O)(C(=O)N2CCC(C(C)CCCOc3ccc(C(=O)N(C)C)c(Cl)c3)CC2)C(F)(F)F)c1` (single isomer, unassigned) [Example 26-1, 2-chloro-N,N-dimethyl-4-((R or S)-4-(1-((R or S)-3,3,3-trifluoro-2-hydroxy-2-(3-methoxyphenyl)propanoyl)piperidin-4-yl)pentyloxy)benzamide], for which the results for the EC50 in experiment [1] and in experiment [2] (read-out: LXR alpha IP) were 8 nM and 236 nM, respectively. Further, the Emax in experiment [1] amounted to 65%; in experiment [2] (setting [4]), 12%.

With `COc1cccc([C@@](O)(C(=O)N2CCC(CC[C@H](C)COc3ccc(C(N)=O)c(Cl)c3)CC2)C(F)(F)F)c1` (single isomer, unassigned) [Example 24-1, 2-chloro-4-((R or S)-2-methyl-4-(1-((S or R)-3,3,3-trifluoro-2-hydroxy-2-(3-methoxyphenyl)propanoyl)piperidin-4-yl)butoxy)benzamide], in experiment [1], the EC50 turned out to be 33 nM and the Emax worked out at 54%. The Emax in experiment [2] (setting [4]) was determined as 14%. Besides, the “LXR alpha IP” value in experiment [2] was “No IP”.

For `COc1cccc(C(O)(C(=O)N2CCC(C(F)(F)CCCOc3ccc(C(=O)N(C)C)c(Cl)c3)CC2)C(F)(F)F)c1` (single isomer, unassigned) [Example 22-1, (R or S)-2-chloro-4-(4,4-difluoro-4-(1-(3,3,3-trifluoro-2-hydroxy-2-(3-methoxyphenyl)propanoyl)piperidin-4-yl)butoxy)-N,N-dimethylbenzamide], the EC50 was 7 nM in experiment [1] and 212 nM in experiment [2] (read-out: LXR alpha IP). The Emax in experiment [1] came out at 67%; in experiment [2] (setting [4]), 32%.

On to `CCOC(=O)N1CCN(C(=O)c2ccc(OCCCCC3CCN(C(=O)C(O)(c4ccccc4)C(F)(F)F)CC3)nc2Cl)CC1` (stereo not drawn) [Example 3-18, ethyl 4-(2-chloro-6-(4-(1-(3,3,3-trifluoro-2-hydroxy-2-phenylpropanoyl)piperidin-4-yl)butoxy)nicotinoyl) piperazine-l-carboxylate], for which the EC50 in experiment [1] is 17 nM; in experiment [2] (LXR alpha IP) it was 498 nM. In addition, the Emax was 75% in experiment [1] and 33% in experiment [2] (setting [3]).

As for `CN(C)C(=O)c1ccc(OCCC2CC23CCN(C(=O)C2(c4ccccc4C(F)(F)F)CCC2)CC3)cc1Cl` (single isomer, unassigned) [Example 12-6, (R or S)-2-chloro-N,N-dimethyl-4-(2-(6-(1-(2-(trifluoromethyl)phenyl)cyclobutanecarbonyl)-6-azaspiro[2.5]octan-1-yl)ethoxy)benzamide], the values for the EC50 in experiment [1] and in experiment [2] (LXR alpha IP) were 4 nM and 80 nM, respectively. Further, the results for the Emax in experiment [1] and in experiment [2] (setting [3]) were 68% and 48%, respectively.

In the case of `C[C@@H](CCC1CCN(C(=O)[C@](O)(c2cc(F)cc(F)c2)C(F)(F)F)CC1)COc1ccc(C(=O)N(C)C)c(Cl)c1` (single isomer, unassigned) [Example 23-3, 2-chloro-4-((S or R)-4-(1-((R or S)-2-(3,5-difluorophenyl)-3,3,3-trifluoro-2-hydroxypropanoyl)piperidin-4-yl)-2-methylbutoxy)-N,N-dimethylbenzamide], the EC50 in experiment [1] was 12 nM; in experiment [2] (LXR alpha IP), 150 nM. Moreover, the Emax is 89% in experiment [1] and 42% in experiment [2] (setting [3]).

On to `O=C(c1ccc(OCCCCC2CCN(C(=O)C(O)(c3ccccc3)C(F)(F)F)CC2)cc1Cl)N1C[C@H]2CC[C@@H]1C2` (single isomer, unassigned) [Example 8-14, (R or S)-1-(4-(4-(4-((1R,4S)-2-azabicyclo[2.2.1]heptane-2-carbonyl)-3-chlorophenoxy)butyl)piperidin-1-yl)-3,3,3-trifluoro-2-hydroxy-2-phenylpropan-1-one], for which the EC50 stood at 38 nM in experiment [1] and 227 nM in experiment [2] (LXR alpha IP). For the same molecule, the Emax in experiment [1] came to 48%; in experiment [2] (setting [3]) it was 19%.

`COc1cccc([C@](O)(C(=O)N2CCC3(CC2)C[C@H]3CCCOc2ccc(C(=O)N(C)C)c(Cl)c2)C(F)(F)F)c1` (single isomer, unassigned) [Example 14-4, 2-chloro-N,N-dimethyl-4-(3-((R or S)-6-((S or R)-3,3,3-trifluoro-2-hydroxy-2-(3-methoxyphenyl)propanoyl)-6-azaspiro[2.5]octan-1-yl)propoxy)benzamide] returned an EC50 in experiment [1] of 83 nM. In addition, the Emax in experiment [1] was found to be 80%; in experiment [2] (setting [3]) it was 0%. Moreover, in experiment [2], the “LXR alpha IP” value is on record as “No IP”.
